Laboratory results from patent US20250205259A1, “CLASS OF 7-((FIVE-MEMBERED HETEROCYCLIC)METHYL)-8-CARBOXYLIC ACID-BENZO CYCLIC BORATE DERIVATIVES AND USES THEREOF” (priority 2022, published 2025).
Where two headings read alike, the source gives them in different places.

Tests used:
VIM-2 = VIM-2 (Escherichia coli, UniProt Q5U7L7); assay: Inhibitory activity on MBL, fluorescent substrate FC-5; type: biochemical
KPC-2 = KPC-2 (Klebsiella pneumoniae, UniProt Q9F663); assay: Inhibitory activity on SBL, fluorescent substrate FC-5; type: biochemical; settings: for inhibitory activity on KPC-2 compared to avibactam: comparison in words
NDM-5 = NDM-5 (Klebsiella pneumoniae, UniProt C7C422, M154L/V88L); assay: Inhibitory activity on MBL, fluorescent substrate FC-5; type: biochemical
NDM-1 = NDM-1 (Klebsiella pneumoniae, UniProt C7C422); assay: as above; type: biochemical
CTX-M-14 = CTX-M-14 (Escherichia coli, UniProt Q9L5C7); assay: Inhibitory activity on SBL, fluorescent substrate FC-5; type: biochemical; settings: for inhibitory activity on CTX-M-14 compared to avibactam: comparison in words
VIM-1 = VIM-1 (Pseudomonas aeruginosa, UniProt A0A0F7KYQ8); assay: Inhibitory activity on MBL, fluorescent substrate FC-5; type: biochemical
AmpC = AmpC (UniProt P24735); assay: Inhibitory activity on SBL, fluorescent substrate FC-5
OXA-48 = OXA-48 (Klebsiella pneumoniae, UniProt Q6XEC0); assay: as above; type: biochemical; settings: for inhibitory activity on OXA-48 compared to avibactam: comparison in words
SHV-12 = biological target: T1, SHV-12 (UniProt P0AD64, L31Q/G234S/E235K, species not given); assay: as above; type: biochemical; settings: for inhibitory activity on SHV-12 compared to control drugs: comparison in words
T1 sequence (P0AD64 1-286 L31Q/G234S/E235K): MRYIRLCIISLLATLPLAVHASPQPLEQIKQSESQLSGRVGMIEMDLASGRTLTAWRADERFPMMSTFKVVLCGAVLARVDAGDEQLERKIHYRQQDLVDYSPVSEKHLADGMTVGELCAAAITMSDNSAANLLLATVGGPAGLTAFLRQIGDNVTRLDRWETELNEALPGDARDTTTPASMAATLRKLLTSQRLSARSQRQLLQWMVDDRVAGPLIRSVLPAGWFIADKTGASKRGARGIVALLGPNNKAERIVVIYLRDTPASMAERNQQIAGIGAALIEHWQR

TEM-1 = TEM-1 (Escherichia coli, UniProt P62593); assay: as above; type: biochemical; settings: for inhibitory activity on TEM-1 compared to avibactam: comparison in words; for IC50: read-out: Inhibitory activity on SBL TEM-1 (IC50 class)
IMP-1 = IMP-1 (Serratia marcescens, UniProt P52699); assay: Inhibitory activity on MBL, fluorescent substrate FC-5; type: biochemical
[1] = test system: Klebsiella pneumoniae expressing KPC-2; assay: Antibacterial activity in combination with meropenem (MIC), clinically isolated strains; settings: compound final concentration 10 μM
[2] = test system: Escherichia coli expressing IMP-1; assay: as above; type: cell-based; settings: clinical isolate EC1541 (blaIMP-1), compound final concentration 10 μM
[3] = read-out: Inhibitory activity on MBL VIM-2 (IC50 class)
[4] = read-out: Inhibitory activity on SBL KPC-2 (IC50 class)
[5] = read-out: Inhibitory activity on MBL NDM-5 (IC50 class)
[6] = read-out: inhibitory activity at a nanomolar-level on NDM-5
[7] = read-out: Inhibitory activity on MBL NDM-1 (IC50 class)
[8] = read-out: inhibitory activity at a nanomolar-level on NDM-1
[9] = read-out: Inhibitory activity on SBL CTX-M-14 (IC50 class)
[10] = VIM-1 and/or VIM-2, read-out: inhibitory activity at a nanomolar-level on VIM-1 and/or VIM-2
[11] = read-out: Inhibitory activity on MBL VIM-1 (IC50 class)
[12] = read-out: Inhibitory activity on SBL AmpC (IC50 class)
[13] = read-out: Inhibitory activity on SBL OXA-48 (IC50 class)
[14] = read-out: Inhibitory activity on SBL SHV-12 (IC50 class)
[15] = read-out: Inhibitory activity on MBL IMP-1 (IC50 class)

CTX-M-14, sequence (Q9L5C7 entry or part of it): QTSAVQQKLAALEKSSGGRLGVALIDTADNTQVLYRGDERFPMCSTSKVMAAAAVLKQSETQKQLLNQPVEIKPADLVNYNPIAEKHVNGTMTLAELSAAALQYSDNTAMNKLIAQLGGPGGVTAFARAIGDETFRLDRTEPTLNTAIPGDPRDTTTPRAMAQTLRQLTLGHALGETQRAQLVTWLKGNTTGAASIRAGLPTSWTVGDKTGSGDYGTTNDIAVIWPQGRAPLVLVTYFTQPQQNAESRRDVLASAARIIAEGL
KPC-2, sequence (Q9F663 25-293 limits assumed): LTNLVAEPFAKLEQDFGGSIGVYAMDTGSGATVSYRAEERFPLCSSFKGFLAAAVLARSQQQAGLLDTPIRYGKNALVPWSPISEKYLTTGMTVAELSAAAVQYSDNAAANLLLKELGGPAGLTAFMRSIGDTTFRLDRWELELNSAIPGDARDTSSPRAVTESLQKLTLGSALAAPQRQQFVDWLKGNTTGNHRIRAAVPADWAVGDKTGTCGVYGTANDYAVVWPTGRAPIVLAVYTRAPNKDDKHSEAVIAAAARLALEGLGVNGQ
IMP-1, sequence (P52699 19-246 limits assumed): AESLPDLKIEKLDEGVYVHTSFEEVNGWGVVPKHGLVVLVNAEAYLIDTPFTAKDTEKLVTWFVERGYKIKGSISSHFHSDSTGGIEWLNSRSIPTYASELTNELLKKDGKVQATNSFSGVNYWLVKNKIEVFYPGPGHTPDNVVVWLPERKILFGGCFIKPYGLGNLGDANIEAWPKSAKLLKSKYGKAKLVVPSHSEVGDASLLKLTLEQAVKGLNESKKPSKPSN
OXA-48, sequence (Q6XEC0 23-265 limits assumed): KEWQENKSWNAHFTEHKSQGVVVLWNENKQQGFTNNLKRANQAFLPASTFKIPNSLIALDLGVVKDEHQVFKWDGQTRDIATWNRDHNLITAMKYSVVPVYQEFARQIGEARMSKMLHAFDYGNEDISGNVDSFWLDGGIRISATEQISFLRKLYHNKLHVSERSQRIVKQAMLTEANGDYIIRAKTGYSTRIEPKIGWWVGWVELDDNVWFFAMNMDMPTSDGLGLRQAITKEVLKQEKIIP
NDM-5, sequence (C7C422 29-270 V88L/M154L): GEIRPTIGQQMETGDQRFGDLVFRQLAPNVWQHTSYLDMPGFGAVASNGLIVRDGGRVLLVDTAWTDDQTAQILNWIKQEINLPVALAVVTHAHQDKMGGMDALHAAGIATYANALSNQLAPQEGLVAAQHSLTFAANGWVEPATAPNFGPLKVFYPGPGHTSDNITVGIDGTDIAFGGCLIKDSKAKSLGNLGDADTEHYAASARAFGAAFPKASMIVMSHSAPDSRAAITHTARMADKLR
TEM-1, sequence (P62593 24-286 limits assumed): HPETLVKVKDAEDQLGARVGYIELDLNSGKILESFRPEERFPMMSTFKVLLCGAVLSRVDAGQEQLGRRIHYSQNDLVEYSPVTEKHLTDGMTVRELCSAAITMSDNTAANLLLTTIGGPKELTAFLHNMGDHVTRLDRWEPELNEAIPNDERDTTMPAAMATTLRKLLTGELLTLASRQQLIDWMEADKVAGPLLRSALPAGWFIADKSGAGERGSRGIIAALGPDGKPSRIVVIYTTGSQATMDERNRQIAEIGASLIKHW
NDM-1, sequence (C7C422 29-270 limits assumed): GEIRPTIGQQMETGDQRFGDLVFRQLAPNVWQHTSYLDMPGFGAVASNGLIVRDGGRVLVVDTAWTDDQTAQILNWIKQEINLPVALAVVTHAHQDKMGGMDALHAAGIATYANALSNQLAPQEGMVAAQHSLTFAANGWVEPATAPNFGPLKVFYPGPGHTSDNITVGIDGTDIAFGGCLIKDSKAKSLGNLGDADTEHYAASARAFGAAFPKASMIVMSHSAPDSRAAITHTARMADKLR

SMILES | IC50 (VIM-2; [3]) [nM] | inhibitory activity on KPC-2 compared to avibactam (KPC-2) | IC50 (KPC-2; [4]) [nM] | IC50 (NDM-5; [5]) [nM] | IC50 (NDM-5; [6]) [nM] | IC50 (NDM-1; [7]) [nM] | IC50 (NDM-1; [8]) [nM] | inhibitory activity on CTX-M-14 compared to avibactam (CTX-M-14) | IC50 (CTX-M-14; [9]) [nM] | IC50 (VIM-1; [10]) [nM] | IC50 (VIM-1; [11]) [nM] | IC50 (AmpC; [12]) [nM] | inhibitory activity on OXA-48 compared to avibactam (OXA-48) | IC50 (OXA-48; [13]) [nM] | inhibitory activity on SHV-12 compared to control drugs (SHV-12) | IC50 (SHV-12; [14]) [nM] | inhibitory activity on TEM-1 compared to avibactam (TEM-1) | IC50 (TEM-1) [nM] | IC50 (IMP-1; [15]) [nM] | also measured
CN1Cc2cn(Cc3ccc4c(c3C(=O)O)OB(O)CC4)nc2C1 [Compound 74] | 10 to 1000 | better or comparable | < 10 | 10 to 1000 | < 1000 | 10 to 1000 | < 1000 | better or comparable | 10 to 1000 | < 1000 | 10 to 1000 | 10 to 1000 | better or comparable | 10 to 1000 | comparable to avibactam and tazobactam and superior to taniborbactam | < 10 | better or comparable | < 10 | 10 to 1000 | 
O=C(O)c1c(CNc2nncs2)ccc2c1OB(O)CC2 [Comparative example 1 compound 64, reference compound] | 1000 to 100000 |  | 10 to 1000 | 1000 to 100000 |  | 1000 to 100000 |  |  | 10 to 1000 |  | 1000 to 100000 | 1000 to 100000 |  | 10 to 1000 |  | 1000 to 100000 |  |  | > 100000 | IC50 (VIM-2; unit inferred, read-out: VIM-2, number in parentheses under the class symbol): 8100 nM; IC50 (KPC-2; unit inferred, read-out: KPC-2, number in parentheses under the class symbol): 65 nM; IC50 (NDM-5; unit inferred, read-out: NDM-5, number in parentheses under the class symbol): 3230 nM; IC50 (NDM-1): 3230 nM; IC50 (CTX-M-14; unit inferred, read-out: CTX-M-14, number in parentheses under the class symbol): 63 nM; IC50 (VIM-1; unit inferred, read-out: VIM-1, number in parentheses under the class symbol): 5500 nM; IC50 (AmpC; read-out: AmpC, number in parentheses under the class symbol, unit inferred): 7500 nM; IC50 (OXA-48; unit inferred, read-out: OXA-48, number in parentheses under the class symbol): 154 nM; IC50 (SHV-12; unit inferred, read-out: SHV-12, number in parentheses under the class symbol): 1580 nM; IC50 (IMP-1; unit inferred, read-out: IMP-1, number in parentheses under the class symbol): 103000 nM
NC(=O)N1Cc2cn(Cc3ccc4c(c3C(=O)O)OB(O)CC4)nc2C1 [Compound 73] | 10 to 1000 | better or comparable | < 10 | 10 to 1000 | < 1000 | 10 to 1000 | < 1000 | better or comparable | 10 to 1000 | < 1000 | 10 to 1000 | 10 to 1000 | better or comparable | 10 to 1000 | comparable to avibactam and tazobactam and superior to taniborbactam | < 10 | better or comparable | < 10 | 10 to 1000 | 
NCCN[C@H]1CC[C@H](CC(=O)N[C@H]2Cc3cccc(C(=O)O)c3OB2O)CC1 [Taniborbactam, reference compound] | < 10 |  | 10 to 1000 |  |  |  |  |  | 10 to 1000 |  | 10 to 1000 |  |  | 10 to 1000 |  |  |  |  | 1000 to 100000 | MIC value of compounds in combination with meropenem, KP090344 (blaKPC-2) ([1]; clinical isolate KP090344 (blaKPC-2)): ++++ (++++ indicates MIC < 4 μg/ml); MIC value of compounds in combination with meropenem, KP140508 (blaKPC-2) ([1]; clinical isolate KP140508 (blaKPC-2)): ++++ (++++ indicates MIC < 4 μg/ml); MIC value of compounds in combination with meropenem, KP140912 (blaKPC-2) ([1]; clinical isolate KP140912 (blaKPC-2)): ++++ (++++ indicates MIC < 4 μg/ml); MIC value of compounds in combination with meropenem, EC1541 (blaIMP-1) [2]: ++++ (++++ indicates MIC < 4 μg/ml)
